Test results reported in patent US20100016274A1, “BETA-LACTAM CANNABINOID RECEPTOR MODULATORS” (priority 2006, published 2010).
“And” between values parts separate entries of the source, which are not always exact repeats. Equal entries are not always repeated. Where two headings read alike, the source gives them in different places.

What was measured:
[1] = molecular target: T1, cannabinoid receptor-1 (CB1), CB1R-containing cell membrane (Homo sapiens, UniProt P21554); test: biochemical; format: binding; settings: for Ki: displacement of 3H-CP55940 on CB1 receptors, from serial dilutions, non-linear regression
T1 construct: purchased Applied Cell Sciences Inc, Rockville, Md
T1 sequence (P21554 whole entry, species assumed): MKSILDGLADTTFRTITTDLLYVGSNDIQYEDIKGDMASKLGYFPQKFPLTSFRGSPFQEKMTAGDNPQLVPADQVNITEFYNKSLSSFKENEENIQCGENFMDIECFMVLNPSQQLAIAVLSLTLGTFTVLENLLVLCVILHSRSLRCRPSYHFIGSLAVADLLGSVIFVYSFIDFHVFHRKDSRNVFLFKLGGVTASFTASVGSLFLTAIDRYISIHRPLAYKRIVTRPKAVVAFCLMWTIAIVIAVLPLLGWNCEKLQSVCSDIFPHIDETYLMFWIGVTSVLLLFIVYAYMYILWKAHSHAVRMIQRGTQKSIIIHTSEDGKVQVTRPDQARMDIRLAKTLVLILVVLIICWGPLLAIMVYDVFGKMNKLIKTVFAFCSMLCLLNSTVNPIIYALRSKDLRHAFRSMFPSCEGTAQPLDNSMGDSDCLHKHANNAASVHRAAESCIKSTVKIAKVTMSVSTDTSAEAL
Protocol: Method A using cell membranes. A compound is dissolved in DMSO and diluted to 1 M as a stock solution. […] A CB1R-containing cell membrane (Applied Cell Sciences Inc, Rockville, Md.) is diluted with binding buffer to a protein concentration of 28 μg/ml.
(§1) The mixture is incubated for 90 min at room temperature, then filtered through Whatman glass fiber C disc filter in a vacuum manifold. The filter is washed three times each with 2.5 ml cold wash buffer (binding buffer with only 2.5 mg/ml BSA). The vacuum-dried filter is transferred to a scintillation vial, treated with 3 ml Eco-Scint, and the radioactivity is read on a Beckman LS6500 scintillation counter from which an IC50 value is calculated. The corresponding Ki values are obtained from serial dilutions according to this method, and calculated through the use of a non-linear regression program (Graphpad Inc, San Diego, Calif.).

[2] = molecular target: T2, hCB1 (membranes from hCB1 stably transfected CHO cells) (Homo sapiens, UniProt P21554); test: Cannabinoid Receptor-1 (CB1) Functional Activity Assay, Method A (35S-GTPγS, WIN 55212-2); format: biochemical; settings: for antagonism of WIN 55212-2 at CB1 receptors: FIGS. 3b-3d; for antagonism at CB1 receptors: FIGS. 5a, 6a, 7a, no WIN 55212-2 named in the legend; for antagonism of 3 μM WIN 55212-2 at CB1 receptors: FIGS. 5b, 6b, 7b
T2 construct: purchased Perkin Elmer/NEN; host or cells: CHO cells, stably transfected
T2 sequence (P21554 whole entry): as the sequence (P21554 whole entry, species assumed) above
Protocol: (§2) Membranes are diluted in ice-cold assay buffer (10 mM HEPES, 100 mM NaCl, 10 mM MgCl2, 2 μM GDP, 0.2% FAF-BSA, 10 μg/mL saponin) to 38 μg membranes/mL. Dilute ^35S-GTPγ5 to 1 nM in assay buffer. […] These solutions are incubated for 30 minutes at 30° C. The filters are washed 6 times with 10 mM sodium phosphate buffer (pH 7.4) at ambient temperature. The filters are counted using a liquid scintillation counter on the ^35S channel. Each compound/concentration is run in triplicate. A positive antagonism control may be run for AM251 at the same concentrations as test compounds under the same conditions.

[3] = molecular target: T3, hCB2 (membranes from hCB2 stably transfected CHO cells) (Homo sapiens, UniProt P34972); test: Cannabinoid Receptor-2 (CB2) Functional Activity Assay, Method A (35S-GTPγS); format: biochemical; settings: positive control, FIG. 9a
T3 construct: purchased Perkin Elmer/NEN; host or cells: CHO cells, stably transfected
T3 sequence (P34972 whole entry): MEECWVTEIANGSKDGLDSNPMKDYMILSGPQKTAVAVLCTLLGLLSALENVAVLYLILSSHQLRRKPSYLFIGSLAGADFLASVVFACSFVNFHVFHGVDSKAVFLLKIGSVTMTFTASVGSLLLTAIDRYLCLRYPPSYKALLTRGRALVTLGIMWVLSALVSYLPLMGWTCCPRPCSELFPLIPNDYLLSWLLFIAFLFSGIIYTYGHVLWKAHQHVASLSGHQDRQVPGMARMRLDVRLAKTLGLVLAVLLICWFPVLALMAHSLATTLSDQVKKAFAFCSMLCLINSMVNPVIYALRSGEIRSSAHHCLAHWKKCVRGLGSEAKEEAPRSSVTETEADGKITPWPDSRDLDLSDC
Protocol: as §2, with “^35S-GTPγS” for “^35S-GTPγ5”, “is” for “may be”, “AM630” for “AM251”

[4] = molecular target: T4, cannabinoid receptor-2 (CB2), CB2R-containing cell membrane; hCB2 receptors (Homo sapiens, UniProt P34972); test: Cannabinoid Receptor-2 (CB2) Binding Assay, Method A using cell membranes (displacement of 3H-CP55940)
T4 construct: purchased Applied Cell Sciences Inc, Rockville, Md
T4 sequence (P34972 whole entry): as above

[5] = molecular target: T4, cannabinoid receptor-2 (CB2), CB2R-containing cell membrane; hCB2 receptors; test: as above; settings: displacement of 3H-CP55940 (1 nM), CB2R-containing cell membrane
Protocol: Method A using cell membranes. A compound is dissolved in DMSO and diluted to 1 M as a stock solution. […] A CB2R-containing cell membrane (Applied Cell Sciences Inc, Rockville, Md.) is diluted with binding buffer to a protein concentration of 28 μg/ml.
as §1

[6] = displacement of 3H-CP55940 (1 nM) on CB1 receptors, read-out: IC50
[7] = FIG. 8, against pre-bound CP55940 on CHO cells expressing hCB2 receptors

SMILES | IC50 [1, 6] | Ki [1] | antagonism of WIN 55212-2 at CB1 receptors [2] | antagonism at CB1 receptors [2] | antagonism of 3 μM WIN 55212-2 at CB1 receptors [2] | further results
CC(C)(C)C(=O)C(C(=O)OCc1ccccc1)N1C(=O)C(c2cccs2)C1C=Cc1ccccc1 (mixture of isomers) [Example 70C, Benzyl 2(RS)-tert-Butylcarbonyl-2-[3(S*)-2-thienyl)-4(R*)-(2-styryl)azetidin-2-on-1-yl]acetate] | 1350 nM and 1400 nM | 676 nM and 670 nM | antagonism | antagonism | antagonism | –
Cc1c(C(=O)NN2CCCCC2)nn(-c2ccc(Cl)cc2Cl)c1-c1ccc(I)cc1 [AM251, N-(piperidin-1-yl)-1-(2,4-dichlorophenyl)-5-(4-iodophenyl)-4-methyl-1H-pyrazole-3-carboxamide, reference compound] | – | – | antagonism | – | – | –
CCCCCCC(C)(C)c1ccc(C2CC(O)CCC2CCCO)c(O)c1 (stereo not drawn) [CP55940, 5-(1,1-dimethylheptyl)-2-[5-hydroxy-2-(3-hydroxypropyl)-cyclohexyl]-phenol] | – | – | – | – | – | agonism of CB2 receptors [3]: agonism
O=C(NCc1cccc(C(F)(F)F)c1F)C(CC(=O)N1CCC(N2CCCCC2)CC1)N1C(=O)C(N2C(=O)OCC2c2ccccc2)C1C=Cc1ccccc1 [Example 33G, 2(R)-[[4-(Piperidinyl)piperidinyl]carbonylmethyl]-2-[3 (S)-(4(S)-phenyloxazolidin-2-on-3-yl)-4(R)-(2-styryl)azetidin-2-on-1-yl]acetic acid N-(2-fluoro-3-trifluoromethylbenzyl)carboxamide] | – | – | – | – | – | IC50 [4, 7]: 273 nM; Ki [4, 7]: 182 nM
O=C(CC[C@@H](C(=O)N1CCN(C2CCCCC2)CC1)N1C(=O)[C@@H](N2C(=O)OC[C@@H]2c2ccccc2)[C@H]1/C=C/c1ccccc1)NCc1cc(F)cc(C(F)(F)F)c1 [Example 37S] | 2300 nM | 1150 nM | antagonism | antagonism | antagonism | –
O=C(CC[C@@H](C(=O)N1CCN(C2CCCCC2)CC1)N1C(=O)[C@@H](N2C(=O)OC[C@@H]2c2ccccc2)[C@H]1/C=C/c1ccccc1)NCc1ccc(Cl)c(C(F)(F)F)c1 [Example 37U] | 2100 nM | 1070 nM | – | antagonism | antagonism | –
O=C(NCc1ccc(Cl)c(C(F)(F)F)c1)[C@H](CCC(=O)N1CCN(C2CCCCC2)CC1)N1C(=O)[C@@H](N2C(=O)OC[C@@H]2c2ccccc2)[C@H]1/C=C/c1ccccc1 [Example 38J] | – | – | – | – | – | IC50 ([4]; quoted for the single-dose negative control of the CB2 functional assay, assay of the IC50 not stated): > 10000 nM
O=C(CN1C(=O)C(c2cccs2)C1C=Cc1ccccc1)OCc1ccccc1 (stereo not drawn) [Example 70B, Benzyl 2-[3(S*)-2-Thienyl)-4(R*)-(2-styryl)azetidin-2-on-1-yl]acetate] | – | – | – | – | – | IC50 ([1]; IC50, displacement of 3H-CP55940 (1 nM) on CB1 receptors): < 10000 nM; IC50 [5]: ~1000 nM
